Experimental data published in patent US9902702B2, “Spirocycloheptanes as inhibitors of rock” (BRISTOL-MYERS SQUIBB COMPANY, priority 2014, dated 2018).
pIC50: −log10 of the molar value.

Molecular target: ROCK2 (Homo sapiens, UniProt O75116)
Assay: ROCK assay: phosphorylation of FITC peptide substrate, LABCHIP 3000 mobility shift
Type: biochemical
Details: 5 μM ATP, 1.5 μM peptide substrate; read-out: ROCK2 Activity (ROCK IC50 range)
Outline: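 Rho kinase variant phosphorylates 1.5 μM FITC-AHA-AKRRRLSSLRA-OH with 5 μM ATP in 20 mM HEPES pH 7.5, 20 mM MgCl2, 0.015% Brij-35, 4 mM DTT, DMSO <2%. EDTA stops the reaction, and phospho and non-phospho peptides are resolved by LabChip 3000 mobility shift. IC50 from dose-response curve fit.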

Chain of ROCK2 (O75116 whole entry, species assumed): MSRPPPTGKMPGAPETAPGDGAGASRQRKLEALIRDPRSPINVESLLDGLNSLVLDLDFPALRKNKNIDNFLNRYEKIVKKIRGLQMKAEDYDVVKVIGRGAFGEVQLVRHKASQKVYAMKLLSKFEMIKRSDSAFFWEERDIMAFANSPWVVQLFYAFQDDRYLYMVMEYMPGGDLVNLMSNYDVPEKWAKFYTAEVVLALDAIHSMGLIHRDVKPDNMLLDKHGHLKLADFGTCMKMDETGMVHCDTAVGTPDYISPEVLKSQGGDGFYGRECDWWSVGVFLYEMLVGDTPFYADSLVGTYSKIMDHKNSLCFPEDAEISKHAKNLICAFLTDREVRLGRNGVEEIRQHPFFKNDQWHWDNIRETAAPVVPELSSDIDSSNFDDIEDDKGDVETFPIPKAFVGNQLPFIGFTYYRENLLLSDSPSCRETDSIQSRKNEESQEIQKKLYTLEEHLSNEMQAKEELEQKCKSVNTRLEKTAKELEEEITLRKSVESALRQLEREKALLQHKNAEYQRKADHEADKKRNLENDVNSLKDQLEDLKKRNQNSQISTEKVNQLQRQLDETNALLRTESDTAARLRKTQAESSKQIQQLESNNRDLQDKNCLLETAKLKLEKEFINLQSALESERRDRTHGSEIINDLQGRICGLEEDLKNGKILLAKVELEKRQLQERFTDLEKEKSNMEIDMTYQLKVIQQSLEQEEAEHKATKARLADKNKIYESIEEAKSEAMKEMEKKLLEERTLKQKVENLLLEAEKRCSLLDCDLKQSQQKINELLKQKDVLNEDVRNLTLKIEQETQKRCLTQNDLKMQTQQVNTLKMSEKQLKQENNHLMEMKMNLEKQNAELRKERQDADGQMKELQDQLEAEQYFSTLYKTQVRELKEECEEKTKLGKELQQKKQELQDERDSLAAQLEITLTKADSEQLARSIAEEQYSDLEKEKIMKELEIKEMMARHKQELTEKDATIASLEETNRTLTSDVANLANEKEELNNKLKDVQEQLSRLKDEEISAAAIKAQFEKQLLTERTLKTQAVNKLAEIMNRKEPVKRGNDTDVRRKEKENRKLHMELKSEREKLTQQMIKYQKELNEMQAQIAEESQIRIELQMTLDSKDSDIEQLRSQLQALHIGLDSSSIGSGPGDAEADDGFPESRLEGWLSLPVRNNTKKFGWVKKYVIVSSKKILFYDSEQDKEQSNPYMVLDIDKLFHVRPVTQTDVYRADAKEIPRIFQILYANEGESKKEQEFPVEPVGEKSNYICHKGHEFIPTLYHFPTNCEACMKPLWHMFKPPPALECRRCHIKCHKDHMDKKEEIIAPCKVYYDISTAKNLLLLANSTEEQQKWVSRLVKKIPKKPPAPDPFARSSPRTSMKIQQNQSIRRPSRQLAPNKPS

| Compound | pIC50 |
| --- | --- |
| O=C(NC1CC2(C1)CC(c1n[nH]c(=O)c3ccccc13)C2)c1cnn2cc(-c3cnn(CC(O)C(F)(F)F)c3)ccc12 [Example 171, N-((αR)-6-(4-oxo-3,4-dihydrophthalazin-1-yl)spiro[3.3]heptan-2-yl)-6-(1-((S)-3,3,3-trifluoro-2-hydroxypropyl)-1H-pyrazol-4-yl)pyrazolo[1,5-α]pyridine-3-carboxamide] | 8.30 to 8.70 |
| O=C(NC1CC2(C1)CC(c1n[nH]c(=O)c3ccccc13)C2)c1cnn2cc(-c3c[nH]nc3C(F)(F)F)ccc12 (stereo not drawn) [Example 172, N-((αR)-6-(4-oxo-3,4-dihydrophthalazin-1-yl)spiro[3.3]heptan-2-yl)-6-(3-(trifluoromethyl)-1H-pyrazol-4-yl)pyrazolo[1,5-α]pyridine-3-carboxamide] | 8.30 to 8.70 |
| O=C(NC1CC2(C1)CC(c1n[nH]c(=O)c3ccccc13)C2)c1cnn2cc(-c3nccs3)ccc12 (stereo not drawn) [Example 173, N-((αR)-6-(4-oxo-3,4-dihydrophthalazin-1-yl)spiro[3.3]heptan-2-yl)-6-(thiazol-2-yl)pyrazolo[1,5-α]pyridine-3-carboxamide] | 8.70 to 9.70 |
| O=C(NC1CC2(C1)CC(c1n[nH]c(=O)c3ccccc13)C2)c1cnn2cc(-c3cn[nH]c3)ccc12 (stereo not drawn) [Example 174, N-((αR)-6-(4-oxo-3,4-dihydrophthalazin-1-yl)spiro[3.3]heptan-2-yl)-6-(1H-pyrazol-4-yl)pyrazolo[1,5-α]pyridine-3-carboxamide] | 8.70 to 9.70 |
| Cc1nnn(C)c1-c1ccc2c(C(=O)NC3CC4(C3)CC(c3n[nH]c(=O)c5ccccc35)C4)cnn2c1 (stereo not drawn) [Example 175, 6-(1,4-dimethyl-1H-1,2,3-triazol-5-yl)-N-((αR)-6-(4-oxo-3,4-dihydrophthalazin-1-yl)spiro[3.3]heptan-2-yl)pyrazolo[1,5-α]pyridine-3-carboxamide] | 7.00 to 7.82 |
| O=C(NC1CC2(C1)CC(c1n[nH]c(=O)c3ccccc13)C2)c1cnn2cc(-n3ccnc3)ccc12 (stereo not drawn) [Example 176, 6-(1H-imidazol-1-yl)-N-((αR)-6-(4-oxo-3,4-dihydrophthalazin-1-yl)spiro[3.3]heptan-2-yl)pyrazolo[1,5-α]pyridine-3-carboxamide] | 7.82 to 8.29 |
| O=C(N[C@H]1CC2(C1)C[C@H](c1n[nH]c(=O)c3ccccc31)C2)c1cnn2cc(-n3cccn3)ccc12 (stereo partly drawn) [Example 177, N-((αR)-6-(4-oxo-3,4-dihydrophthalazin-1-yl)spiro[3.3]heptan-2-yl)-6-(1H-pyrazol-1-yl)pyrazolo[1,5-α]pyridine-3-carboxamide] | 8.70 to 9.70 |
| O=C(NC1CC2(C1)CC(c1n[nH]c(=O)c3ccccc13)C2)c1cnn2cc(-n3cncn3)ccc12 (stereo not drawn) [Example 178, N-((αR)-6-(4-oxo-3,4-dihydrophthalazin-1-yl)spiro[3.3]heptan-2-yl)-6-(1H-1,2,4-triazol-1-yl)pyrazolo[1,5-α]pyridine-3-carboxamide] | 8.30 to 8.70 |
| COCCOc1ccc2c(C(=O)NC3CC4(C3)CC(c3n[nH]c(=O)c5ccccc35)C4)cnn2c1 (stereo not drawn) [Example 179, 6-(2-methoxyethoxy)-N-((αR)-6-(4-oxo-3,4-dihydrophthalazin-1-yl)spiro[3.3]heptan-2-yl)pyrazolo[1,5-α]pyridine-3-carboxamide] | 8.70 to 9.70 |
| O=C(NC1CC2(C1)CC(c1n[nH]c(=O)c3ccccc13)C2)c1cnn2cc(-n3ccc(=O)cc3)ccc12 (stereo not drawn) [Example 180, N-((αR)-6-(4-oxo-3,4-dihydrophthalazin-1-yl)spiro[3.3]heptan-2-yl)-6-(4-oxopyridin-1(4H)-yl)pyrazolo[1,5-α]pyridine-3-carboxamide] | 7.00 to 7.82 |
| [H][C@]1(c2n[nH]c(=O)c3ccccc32)C[C@]2(C[C@@H](NC(=O)c3cnn4cc(OCCO)ccc34)C2)C1 (stereo partly drawn) [Example 181] | 8.70 to 9.70 |
| O=C(N[C@H]1CC2(C1)C[C@H](c1n[nH]c(=O)c3ccccc31)C2)c1cnn2cc(OCCN3CC(F)C3)ccc12 (stereo partly drawn) [Example 182, 6-(2-(3-fluoroazetidin-1-yl)ethoxy)-N-((aR)-6-(4-oxo-3,4-dihydrophthalazin-1-yl)spiro[3.3]heptan-2-yl)pyrazolo[1,5-a]pyridine-3-carboxamide] | 8.30 to 8.70 |
| CN(C)CCOc1ccc2c(C(=O)NC3CC4(C3)CC(c3n[nH]c(=O)c5ccccc35)C4)cnn2c1 [Example 183, 6-(2-(dimethylamino)ethoxy)-N-((aR)-6-(4-oxo-3,4-dihydrophthalazin-1-yl)spiro[3.3]heptan-2-yl)pyrazolo[1,5-a]pyridine-3-carboxamide] | 8.30 to 8.70 |
| CC1(C)CN(CCOc2ccc3c(C(=O)NC4CC5(C4)CC(c4n[nH]c(=O)c6ccccc46)C5)cnn3c2)CCC1O [Example 184, 6-(2-(4-hydroxy-3,3-dimethylpiperidin-1-yl)ethoxy)-N-((aR)-6-(4-oxo-3,4-dihydrophthalazin-1-yl)spiro[3.3]heptan-2-yl)pyrazolo[1,5-a]pyridine-3-carboxamide] | 8.70 to 9.70 |
| O=C(NC1CC2(C1)CC(c1n[nH]c(=O)c3ccccc13)C2)c1cnn2cc(OCCN3CCC(F)(F)C3)ccc12 [Example 185, 6-(2-(3,3-difluoropyrrolidin-1-yl)ethoxy)-N-((aR)-6-(4-oxo-3,4-dihydrophthalazin-1-yl)spiro[3.3]heptan-2-yl)pyrazolo[1,5-a]pyridine-3-carboxamide] | 8.70 to 9.70 |
| O=C(NC1CC2(C1)CC(c1n[nH]c(=O)c3ccccc13)C2)c1cnn2cc(OCCN3CCC3)ccc12 [Example 186, 6-(2-(azetidin-1-yl)ethoxy)-N-((aR)-6-(4-oxo-3,4-dihydrophthalazin-1-yl)spiro[3.3]heptan-2-yl)pyrazolo[1,5-a]pyridine-3-carboxamide] | 8.30 to 8.70 |
| CC1(C)CN(CCOc2ccc3c(C(=O)NC4CC5(C4)CC(c4n[nH]c(=O)c6ccccc46)C5)cnn3c2)CCO1 [Example 187, 6-(2-(2,2-dimethylmorpholino)ethoxy)-N-((aR)-6-(4-oxo-3,4-dihydrophthalazin-1-yl)spiro[3.3]heptan-2-yl)pyrazolo[1,5-a]pyridine-3-carboxamide] | 8.70 to 9.70 |
| CN1CCN(CCOc2ccc3c(C(=O)NC4CC5(C4)CC(c4n[nH]c(=O)c6ccccc46)C5)cnn3c2)CC1 [Example 188, 6-(2-(4-methylpiperazin-1-yl)ethoxy)-N-((aR)-6-(4-oxo-3,4-dihydrophthalazin-1-yl)spiro[3.3]heptan-2-yl)pyrazolo[1,5-a]pyridine-3-carboxamide] | 8.70 to 9.70 |
| O=C(NC1CC2(C1)CC(c1n[nH]c(=O)c3ccccc13)C2)c1cnn2cc(OCCN3CCC(F)C3)ccc12 [Example 189, 6-(2-((R)-3-fluoropyrrolidin-1-yl)ethoxy)-N-((aR)-6-(4-oxo-3,4-dihydrophthalazin-1-yl)spiro[3.3]heptan-2-yl)pyrazolo[1,5-a]pyridine-3-carboxamide] | 8.70 to 9.70 |
| O=C(NC1CC2(C1)CC(c1n[nH]c(=O)c3ccccc13)C2)c1cnn2cc(OCCN3CCC(F)C3)ccc12 [Example 190, 6-(2-((S)-3-fluoropyrrolidin-1-yl)ethoxy)-N-((aR)-6-(4-oxo-3,4-dihydrophthalazin-1-yl)spiro[3.3]heptan-2-yl)pyrazolo[1,5-a]pyridine-3-carboxamide] | 8.70 to 9.70 |
| O=C(N[C@H]1CC2(C1)C[C@H](c1n[nH]c(=O)c3ccccc31)C2)c1cnn2cc(CCCN3CCOCC3)ccc12 (stereo partly drawn) [Example 191, 6-(3-morpholinopropyl)-N-((aR)-6-(4-oxo-3,4-dihydrophthalazin-1-yl)spiro[3.3]heptan-2-yl)pyrazolo[1,5-a]pyridine-3-carboxamide] | 8.30 to 8.70 |
